“Also recorded” adds a separate entry of the source. Like-named read-outs stand apart in the source and are kept apart here.
Tests used:
[1] = system: 217 S. aureus Canadian isolates; assay type: cell-based; conditions: 217 Canadian isolates
Description: CLSI broth microdilution (BMD) and anaerobic agar dilution (AD) methods were performed. Modifications of standard test methods included adding 10% human serum, adjusting the medium pH to 5, 6, and 8, and synergy was assessed by the checkerboard method.

[2] = Multi-dose pharmacokinetics 500 mg TID, 13 doses; assay type: in vivo, human; conditions: for AUC: Day 5 (13 doses)
Description: The pharmacokinetics of multiple oral doses of CEM-102 (sodium fusidate) 500 mg tablets in healthy subjects was evaluated. Subjects were randomized in a 3:1 ratio and received either CEM-102 500 mg (2×250 mg; n=18) or placebo tablets TID (n=6) for 4.5 days for a total of 13 doses.
Blood samples for assay of plasma concentrations of CEM-102 and placebo were collected pre-dose on Day 1 and at 24, 48, 72, and 96 hours. Samples were also collected at the following times after the morning dose on Day 5: 0.5, 1, 1.5, 2, 2.5, 3, 3.5, 4, 6, 8, 12, 16, 24, 36, and 48 hours.
Plasma concentrations of CEM-102 were assayed at MicroConstants, Inc. in San Diego, Calif., USA using a validated LC/MS/MS method with a lower limit of quantitation (LLOQ) of 20.0 ng/mL.

[3] = Dose escalation study, single/multiple dose and loading dose regimens: safety and tolerability; assay type: in vivo
Description: (§1) The pharmacokinetics (PK), safety, and tolerability of single and multiple doses of CEM-102 (sodium fusidate) were evaluated in a single-center, Phase 1, double-blind, randomized, placebo-controlled, dose-escalating study in 32 healthy adult subjects enrolled in 4 dosage groups (550, 1100, 1650, and 2200 mg). In each cohort, six subjects were to receive CEM-102 and two were to receive placebo in a single dose (Period 1) and then multiple doses BID for a total of 11 doses over 5.5 days (Period 2). The two dosing periods were separated by a seven-day washout period between the single dose in Period 1 and the first dose in Period 2.
(§2) Dosing proceeded as planned for Cohorts 1 to 3; however, Cohort 4 received only the single dose of 2200 mg (Period 1), because dose-limiting gastrointestinal intolerance was observed after multiple doses of 1650 mg BID in Cohort 3. Period 2 for Cohort 4 evaluated an initial loading dose regimen, and a second loading dose regimen was evaluated in an additional cohort (Cohort 5) per a protocol amendment.
(§3) The protocol was amended for assessment of the safety, tolerability, and PK of front-loaded dose regimens comprised of a higher dose of CEM-102 on Day 1 followed by lower doses for the subsequent 6.5 days. All loading dose regimens employed multiple doses lower than the maximum tolerated dose (MTD) established in the first part of the study (1650 mg administered as multiple doses).
(§4) The loading dose regimens assessed were 1100 mg BID on Day 1 and 550 mg BID on the following 6.5 days in Period 2 of Cohort 4 and 1650 mg BID on Day 1 and 825 mg BID on the following 6.5 days in Cohort 5.

[4] = Dose escalation study, single/multiple dose and loading dose regimens: pharmacokinetics; assay type: in vivo, human; conditions: for concentration at 7 days: after 7 days of dosing; for concentration at 7 days / concentration at 24 h: read-out: mean trough plasma concentration
Description: as §1, §2, §3, §4

[5] = after the single dose of 2200 mg
[6] = human, in vivo, 550 mg, Period 1 Day 1, single dose 550 mg
[7] = human, in vivo, 1100 mg BID loading dose then 550 mg BID
[8] = human, in vivo, 1100 mg, Period 1 Day 1, single dose 1100 mg
[9] = human, in vivo, 1650 mg BID loading dose then 825 mg BID
[10] = human, in vivo, 1650 mg, Period 1 Day 1, single dose 1650 mg
[11] = human, in vivo, 2200 mg, Period 1 Day 1, single dose 2200 mg

## CC(=O)O[C@H]1C[C@@]2(C)[C@@H](C[C@@H](O)[C@H]3[C@@]4(C)CC[C@@H](O)[C@@H](C)[C@@H]4CC[C@@]32C)/C1=C(\CCC=C(C)C)C(=O)O [CEM-102, Sodium fusidate]
[1]
  isolates with MICs of ≧2.0 μg/mL (classified as resistant): 6.5%
[2]; 500 mg TID, prior to dosing on Day 5
  trough level: 105 µg/mL
[2]; human, in vivo, 500 mg
  Cmaxss, geometric mean: 145.68 µg/mL
[2]; human, in vivo, 500 mg, 500 mg TID, read-out: AUC0-tss, geometric mean
  AUC: 3560 µg·h/mL
[2]; human, in vivo, 500 mg, 500 mg TID, read-out: AUC0-τss, geometric mean
  AUC: 1030 µg·h/mL
[3]; administered as multiple doses
  maximum tolerated dose (MTD): 1650 mg
[3]; after multiple doses, all cohorts
  subjects reporting nausea: 9 subjects
[3]; after single doses
  changes in physical examinations, vital signs, ECGs, or laboratory parameters: no clinically significant changes
[3]; [5]
  subjects with nausea alone: 2
  subjects with nausea and vomiting: 1 subject
[3]; doses up to 1650 mg BID for 5.5 days
  safety and tolerability: safe and generally well tolerated
[3]; loading dose regimen 1100/550 mg
  Adverse Event (treatment-emergent, per subject and day): Urinary; also recorded: Nausea; also recorded: Constipation
[3]; loading dose regimens 1100/550 mg and 1650/825 mg, total 7.5 days
  tolerability: very well tolerated
[3]; multiple dose 550 mg BID cohort, blinded listing
  Adverse Event (treatment-emergent, per subject and day): Nausea; also recorded: Epigastric pain; also recorded: Dizziness; also recorded: Elevated BP; also recorded: Headache; also recorded: Tachycardia; also recorded: Pharyngitis; also recorded: Hoarseness; also recorded: Sore throat
[3]; multiple dose 1100 mg BID cohort, blinded listing
  Adverse Event (treatment-emergent, per subject and day): Heartburn; also recorded: Constipation; also recorded: Skin Irritation; also recorded: Nausea; also recorded: Dizziness; also recorded: Viral URI
[3]; multiple doses 550 mg BID
  subjects reporting nausea: 2 subjects
[3]; multiple doses 1100 mg BID
  subjects reporting nausea: 2 subjects
[3]; multiple doses 1650 mg BID
  subjects reporting nausea: 5 subjects
  subjects with vomiting: 4 subjects
[3]; single dose 1650 mg
  Adverse Event (treatment-emergent, per subject and day): None
[3]; single dose 2200 mg
  Adverse Event (treatment-emergent, per subject and day): Nausea; also recorded: Vomiting; also recorded: Abdomen distention
[3]; single dose, 550, 1100 or 1650 mg cohorts
  gastrointestinal AEs: no gastrointestinal AEs
[3]; single doses up to 2200 mg
  tolerability: safe and well tolerated
[3]; single doses up to 2200 mg, multiple doses up to 1650 mg for 5.5 days, or loading dose regimens for 7.5 days
  changes in physical examinations, vital signs, ECGs, or laboratory parameters: no clinically significant changes
[3]; whole study
  overall safety and tolerability: safe and generally well tolerated
  serious or life-threatening adverse events: No serious or life-threatening adverse events
[4]; Mean AUC(0-12) Day 6/Mean AUC(0-inf) Day 1, 550 mg
  AUC(0-12) accumulation ratio: 2.61
[4]; Mean AUC(0-12) Day 6/Mean AUC(0-inf) Day 1, 1100 mg
  AUC(0-12) accumulation ratio: 2.30
[4]; Mean AUC(0-12) Day 6/Mean AUC(0-inf) Day 1, 1650 mg
  AUC(0-12) accumulation ratio: 1.83
[4]; Mean Cmax Day 6/Mean Cmax Day 1, 550 mg
  Cmax accumulation ratio: 3.89
[4]; Mean Cmax Day 6/Mean Cmax Day 1, 1100 mg
  Cmax accumulation ratio: 3.89
[4]; Mean Cmax Day 6/Mean Cmax Day 1, 1650 mg
  Cmax accumulation ratio: 3.18
[4]; Period 1 Day 1, single dose 550 mg
  Kel, apparent first-order terminal elimination rate constant, mean: 0.0564 h⁻¹
[4]; Period 1 Day 1, single dose 1100 mg
  Kel, apparent first-order terminal elimination rate constant, mean: 0.0617 h⁻¹
[4]; Period 1 Day 1, single dose 1650 mg
  Kel, apparent first-order terminal elimination rate constant, mean: 0.0498 h⁻¹
[4]; Period 1 Day 1, single dose 2200 mg
  Kel, apparent first-order terminal elimination rate constant, mean: 0.0500 h⁻¹
[4]; Period 2 Day 6, 550 mg BID
  Kel, mean: 0.0554 h⁻¹
[4]; Period 2 Day 6, 1100 mg BID
  Kel, mean: 0.0404 h⁻¹
[4]; Period 2 Day 6, 1650 mg BID
  Kel, mean: 0.0199 h⁻¹
[4]; human, in vivo, 550 mg
  Tmax: 3 h
[4]; [6]
  Cmax: 33.4 µg/mL
  Vd/F: 28.4 L
[4]; human, in vivo, 550 mg, Period 1 Day 1, single dose 550 mg, read-out: AUC(0-24), mean
  AUC(0-t): 242 µg·h/mL
[4]; human, in vivo, 550 mg, Period 1 Day 1, single dose 550 mg, read-out: T1/2, harmonic mean (converted)
  half-life: 12.3 h
[4]; human, in vivo, 550 mg, Period 1 Day 1, single dose 550 mg, read-out: Tmax, median
  Tmax: 2 h
[4]; human, in vivo, 550 mg, Period 2 Day 6, 550 mg BID
  Vd/F: 9.88 L
[4]; human, in vivo, 550 mg, Period 2 Day 6, 550 mg BID, 11 doses
  Cmax: 130 µg/mL
[4]; human, in vivo, 550 mg, Period 2 Day 6, 550 mg BID, read-out: AUC(0-12), mean
  AUC(0-t): 1150 µg·h/mL
[4]; human, in vivo, 550 mg, Period 2 Day 6, 550 mg BID, read-out: T1/2, harmonic mean (converted)
  half-life: 12.5 h
[4]; [7]
  concentration at 7 days: ~105 µg/mL
  concentration at 24 h: ~74 µg/mL
[4]; [8]
  Cmax: 72.2 µg/mL
  Vd/F: 16.9 L
[4]; human, in vivo, 1100 mg, Period 1 Day 1, single dose 1100 mg, read-out: AUC(0-24), mean
  AUC(0-t): 844 µg·h/mL
[4]; human, in vivo, 1100 mg, Period 1 Day 1, single dose 1100 mg, read-out: T1/2, harmonic mean (converted)
  half-life: 11.2 h
[4]; human, in vivo, 1100 mg, Period 2 Day 6, 1100 mg BID
  Vd/F: 12.7 L
[4]; human, in vivo, 1100 mg, Period 2 Day 6, 1100 mg BID, 11 doses
  Cmax: 281 µg/mL
[4]; human, in vivo, 1100 mg, Period 2 Day 6, 1100 mg BID, read-out: AUC(0-12), mean
  AUC(0-t): 2530 µg·h/mL
[4]; human, in vivo, 1100 mg, Period 2 Day 6, 1100 mg BID, read-out: T1/2, harmonic mean (converted)
  half-life: 17.1 h
[4]; human, in vivo, 1650 mg
  Tmax: 4 h
[4]; [9]
  concentration at 7 days: ~200 µg/mL
  concentration at 24 h: ~150 µg/mL
[4]; [10]
  Cmax: 102 µg/mL
  Vd/F: 21.1 L
[4]; human, in vivo, 1650 mg, Period 1 Day 1, single dose 1650 mg, read-out: AUC(0-24), mean
  AUC(0-t): 1260 µg·h/mL
[4]; human, in vivo, 1650 mg, Period 2 Day 6, 1650 mg BID
  Vd/F: 34.8 L
[4]; human, in vivo, 1650 mg, Period 2 Day 6, 1650 mg BID, 11 doses
  Cmax: 324 µg/mL
[4]; human, in vivo, 1650 mg, Period 2 Day 6, 1650 mg BID, read-out: AUC(0-12), mean
  AUC(0-t): 3290 µg·h/mL
[4]; human, in vivo, 1650 mg, Period 2 Day 6, 1650 mg BID, read-out: T1/2, harmonic mean (converted)
  half-life: 31.6 h
[4]; human, in vivo, 2200 mg
  CL/F, mean: 0.924 L/h
  half-life: 13.9 h
[4]; [11]
  Cmax: 128 µg/mL
  Vd/F: 19.2 L
[4]; human, in vivo, 2200 mg, Period 1 Day 1, single dose 2200 mg, read-out: AUC(0-24), mean
  AUC(0-t): 1690 µg·h/mL
[4]; human, in vivo, 2200 mg, Period 1 Day 1, single dose 2200 mg, read-out: Tmax, median
  Tmax: 6 h
[4]; human, in vivo, Period 1 Day 1, single dose 550 mg
  AUC(0-inf): 441 µg·h/mL
[4]; human, in vivo, Period 1 Day 1, single dose 1100 mg
  AUC(0-inf): 1100 µg·h/mL
[4]; human, in vivo, Period 1 Day 1, single dose 1650 mg
  AUC(0-inf): 1800 µg·h/mL
[4]; human, in vivo, Period 1 Day 1, single dose 2200 mg
  AUC(0-inf): 2650 µg·h/mL
